Reference: patent US20070049518A1, “Novel method of treatment of inflammatory skin conditions” (priority 2005, published 2007)

What was measured:
[1] = target: T1, purified aureolysin type I (Staphylococcus aureus, UniProt P81177); assay: biochemical
T1 construct: purchased BioCentrum Ltd

[2] = target: T2, purified aureolysin type II (Staphylococcus aureus, UniProt P81177); assay: Aureolysin enzyme inhibition assay, type II; type: biochemical; conditions: pH 6.8, 37° C., 1 hour; read-out: IC50 value Aureolysin type II
T2 sequence (P81177 1-509): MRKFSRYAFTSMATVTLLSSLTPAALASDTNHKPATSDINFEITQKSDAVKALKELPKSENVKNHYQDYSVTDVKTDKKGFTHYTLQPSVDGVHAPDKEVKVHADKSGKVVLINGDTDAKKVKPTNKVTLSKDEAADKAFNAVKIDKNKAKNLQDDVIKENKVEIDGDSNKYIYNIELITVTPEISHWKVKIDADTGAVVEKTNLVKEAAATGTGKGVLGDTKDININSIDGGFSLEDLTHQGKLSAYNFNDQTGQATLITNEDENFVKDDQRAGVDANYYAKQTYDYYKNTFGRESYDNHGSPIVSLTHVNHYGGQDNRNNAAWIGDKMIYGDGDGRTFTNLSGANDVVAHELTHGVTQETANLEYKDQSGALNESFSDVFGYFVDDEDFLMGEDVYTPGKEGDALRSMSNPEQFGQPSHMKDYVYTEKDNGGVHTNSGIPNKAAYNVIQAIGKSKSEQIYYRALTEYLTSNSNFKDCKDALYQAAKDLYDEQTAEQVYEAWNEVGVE

human MMP-1 = target: T3, human MMP-1 (Homo sapiens, UniProt P03956); assay: MMP enzyme inhibition assay, MMP-1; type: biochemical; conditions: pH 7.5, 37° C., 1 hour
T3 construct: purchased Calbiochem
T3 sequence (P03956 100-469): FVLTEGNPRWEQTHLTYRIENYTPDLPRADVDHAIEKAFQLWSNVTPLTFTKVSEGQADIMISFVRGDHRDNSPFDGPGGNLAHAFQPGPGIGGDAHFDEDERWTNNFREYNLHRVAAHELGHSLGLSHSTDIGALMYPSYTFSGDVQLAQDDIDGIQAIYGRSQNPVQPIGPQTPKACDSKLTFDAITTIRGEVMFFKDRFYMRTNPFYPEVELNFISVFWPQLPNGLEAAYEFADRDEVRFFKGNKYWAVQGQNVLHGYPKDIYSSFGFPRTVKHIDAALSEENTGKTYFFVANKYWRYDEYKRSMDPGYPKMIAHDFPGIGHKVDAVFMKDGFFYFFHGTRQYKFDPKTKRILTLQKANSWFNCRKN

[3] = target: T4, metalloprotease (aureolysin) activity in Staphylococcus aureus 8325-4 culture supernatants (Staphylococcus aureus, UniProt P81177); assay: Metalloprotease activity in S. aureus culture supernatants; type: biochemical
T4 construct: 4 μl S. aureus culture supernatant; endogenous in cells; host or cells: Staphylococcus aureus 8325-4 (culture supernatant)
Method: The culture was then centrifuged to remove the cells and the supernatant stored at −70° C. for subsequent use. […] Activity was expressed as the rate of increase in fluorescence as a function of time.

S. aureus 8325-4 = assay: S. aureus growth by turbidometry in micro-titre plates; type: cell-based, Staphylococcus aureus; conditions: for inhibition at 100 µM: Staphylococcus aureus, 83254, growth inhibition, overnight, absorbance 620 nm, read-out: Inhibition at 0.1 mM
Method: Tryptic soy broth (0.18 ml) containing S. aureus 8325-4 (approximately 10^5 cells) was mixed with 20 μl 20% (v/v) DMSO vehicle±compound in the wells of a flat-bottomed clear polystyrene 96-well micro-titre plate. The plate was incubated overnight at 37° C./220 rpm and the absorbance measured at 620 nm the following day.

recombinant human ADAM17 = target: T5, recombinant human ADAM17 (Homo sapiens, UniProt P78536); assay: Selectivity profile, ADAM17; type: biochemical
T5 construct: purchased R&D Systems Inc

staphopain A = target: T6, staphopain A (Staphylococcus aureus, UniProt P81297); assay: Selectivity profile, staphopain A; type: biochemical; conditions: read-out: inhibition at 0.1 mM, Staphopain A
T6 construct: purchased BioCentrum Ltd
Method: (§1) Inhibitory activity was tested in reaction mixtures (0.1 ml) containing 2% (v/v) DMSO vehicle±compound plus additions as follows. V8 protease: 90 mM MOPS (sodium) buffer pH 7.0, […] calcium chloride, 0.045% Brij 35, 10 μM Mca-Leu-Glu-Val-Asp-Gly-Trp-Lys(Dnp)-amide (Bachem) and V8 (BioCentrum Ltd; 30 ng). Staphopain A and B: 90 mM MOPS (sodium) buffer pH 7.0, 1.8 mM cysteine-HCl (pH-adjusted with NaOH), 0.045% Brij 35, 0.1 mM Z-Phe-Arg-AMC hydrochloride (Bachem) and staphopain A or B (BioCentrum Ltd; 30 ng). Human kallikrein 5: 0.1M sodium phosphate buffer pH 8.0, 0.045% Brij 35, 0.1 mM Boc-Val-Pro-Arg-AMC (Sigma) and recombinant human kallikrein 5 (R&D Systems Inc; 6 ng). Human kallikrein 7: 72 mM Tris-HCl pH 8.0, 0.033% Brij 35, 1.2 mM S-2586 (Chromogenix Instrumentation Laboratory SpA) and recombinant human kallikrein 7 (R&D Systems Inc; 0.6 μg) that had been thermolysin-activated according to the manufacturer's instructions. Human angiotensin-converting enzyme (ACE): 45 mM MES (sodium) buffer pH 6.5, 0.045% Brij 35, 10 μM Mca-[…]Dnp)-OH(R&D Systems Inc) and recombinant human ACE (R&D Systems Inc; 1.3 ng). Human cathepsin D: 0.1M sodium acetate buffer pH 3.5, 0.2M sodium chloride, 0.045% Brij 35, 10 μM Mca-Pro-Leu-Gly-Leu-Dap(Dnp)-Ala-Arg-amide (Bachem) and recombinant human cathepsin D (R&D Systems Inc; 8 ng) activated according to the manufacturer's instructions. […]

staphopain B = target: T7, staphopain B (Staphylococcus aureus, UniProt P0C1S6); assay: Selectivity profile, staphopain B; type: biochemical; conditions: read-out: inhibition at 0.1 mM, Staphopain B
T7 construct: purchased BioCentrum Ltd
Method: as §1

V8 protease = target: T8, V8 protease (Staphylococcus aureus, UniProt P0C1U8); assay: Selectivity profile, V8 protease; type: biochemical; conditions: read-out: inhibition at 0.1 mM, V8 protease
T8 construct: purchased BioCentrum Ltd
Method: as §1

T5 sequence (P78536 215-824): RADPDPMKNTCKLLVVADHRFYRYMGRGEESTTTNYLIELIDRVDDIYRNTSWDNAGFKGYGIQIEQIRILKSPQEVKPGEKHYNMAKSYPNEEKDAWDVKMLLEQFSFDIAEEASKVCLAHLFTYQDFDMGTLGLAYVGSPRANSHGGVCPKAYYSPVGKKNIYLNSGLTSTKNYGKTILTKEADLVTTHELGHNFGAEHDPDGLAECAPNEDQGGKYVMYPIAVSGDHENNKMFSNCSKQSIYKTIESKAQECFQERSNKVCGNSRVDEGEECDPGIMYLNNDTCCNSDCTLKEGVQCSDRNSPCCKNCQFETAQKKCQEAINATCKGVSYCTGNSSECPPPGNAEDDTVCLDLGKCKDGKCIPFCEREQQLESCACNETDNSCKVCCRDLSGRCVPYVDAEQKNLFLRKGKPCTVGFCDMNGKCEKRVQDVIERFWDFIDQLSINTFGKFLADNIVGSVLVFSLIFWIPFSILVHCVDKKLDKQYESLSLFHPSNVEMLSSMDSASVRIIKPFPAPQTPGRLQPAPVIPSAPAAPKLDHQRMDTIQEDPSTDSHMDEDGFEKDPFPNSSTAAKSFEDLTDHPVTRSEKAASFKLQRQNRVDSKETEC
T8 sequence (P0C1U8 69-336): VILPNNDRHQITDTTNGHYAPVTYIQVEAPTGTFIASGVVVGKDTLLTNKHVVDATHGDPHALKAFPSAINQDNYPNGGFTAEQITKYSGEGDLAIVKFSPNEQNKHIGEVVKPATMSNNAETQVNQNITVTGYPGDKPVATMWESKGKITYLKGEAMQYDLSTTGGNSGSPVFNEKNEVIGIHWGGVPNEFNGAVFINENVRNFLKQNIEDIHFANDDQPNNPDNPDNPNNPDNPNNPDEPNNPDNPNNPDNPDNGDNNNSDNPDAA
T6 sequence (P81297 215-388): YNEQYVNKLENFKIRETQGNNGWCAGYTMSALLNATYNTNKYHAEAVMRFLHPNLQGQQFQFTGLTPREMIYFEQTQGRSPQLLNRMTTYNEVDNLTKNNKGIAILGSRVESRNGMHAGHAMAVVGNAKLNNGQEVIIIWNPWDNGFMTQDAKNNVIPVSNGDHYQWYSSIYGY
T7 sequence (P0C1S6 220-393): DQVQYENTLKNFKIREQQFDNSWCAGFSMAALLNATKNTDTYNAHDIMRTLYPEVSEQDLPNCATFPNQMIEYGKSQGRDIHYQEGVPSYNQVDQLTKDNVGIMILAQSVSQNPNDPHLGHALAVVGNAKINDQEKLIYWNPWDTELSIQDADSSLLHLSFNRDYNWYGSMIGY

CNC(=O)[C@@H](NC(=O)[C@H](CC(=O)NO)CC(C)C)C(C)(C)C [Compound 12, (S)—N1-((S)-3,3-dimethyl-1-(methylamino)-1-oxobutan-2-yl)-N4-hydroxy-2-isobutylsuccinamide] was tested, and the IC50 [1] was 1.3 µM, the IC50 [2] was 2.2 µM and the IC50 (human MMP-1) was 2.3 µM. For the same compound, the IC50 [3] was 4.3 µM, the inhibition at 100 µM (S. aureus 8325-4) was 0% and the IC50 (recombinant human ADAM17) was 79 µM. The inhibition at 100 µM (staphopain A) was 0%, the inhibition at 100 µM (staphopain B) was 10% and the inhibition at 100 µM (V8 protease) was 0%.

Compound CNC(=O)[C@@H](NC(=O)[C@@H](CC(=O)NO)CC(C)C)C(C)(C)C [Compound 11, (R)—N1-((S)-3,3-dimethyl-1-(methylamino)-1-oxobutan-2-yl)-N4-hydroxy-2-isobutylsuccinamide] has an IC50 [1] of 1.3 µM, an IC50 [2] of 2.4 µM and an IC50 (human MMP-1) of 0.0028 µM. The IC50 [3] was 3.7 µM, the inhibition at 100 µM (S. aureus 8325-4) was 2% and the “anti-bacterial activity (in words)” value (S. aureus 8325-4; data in Tables 10 and 11) was “not anti-bacterial”. The IC50 (recombinant human ADAM17) was 0.025 µM, the inhibition at 100 µM (staphopain A) was 5% and the inhibition at 100 µM (staphopain B) was 11%. It also gave an inhibition at 100 µM (V8 protease) of 0%.
